Measurements from patent publication US20210038564A1, “METHODS FOR SCAR PREVENTION” (Northwestern University, priority 2009, published 2021).

Tested on: hypertrophic scar formation
Assay: Hypertrophic scar model in rabbit ear, 7-mm wounds, scar elevation index
Format: in vivo, rabbit (New Zealand White)
Text: Using a well-established hypertrophic scar model in rabbit ear (Brown et al. (2008) Plast. Reconstr. Surg. 121:1165-1172; Kim et al. (2003) Wound Repair Regen. 11:368-372; Kryger et al. (2007) J Am. Coll. Surg. 205:78-88; Lu et al. (2005) J Am. Coll. Surg. 201:391-397; Morris et al. (2007) Plast. Reconstr. Surg. 100:674-681; Reid et al. (2006) Wound Repair Regen. 14:138-141; Reid et al. (2007) J Plast. Reconstr. Aesthet. Surg. 60:64-72; Saulis et al. (2002) Plast. Reconstr. Surg. 110:177-183; each herein incorporated by reference in its entirety), the effects of local administration of statins (e.g., Simvastatin, Lovastatin, Prevastatin) were investigated in experiments conducted during the course of developing some embodiments of the present technology. […] The effectiveness of statin administration on inhibition of hypertrophic scar formation was assessed by histological determination of scar elevation index (FIG. 1). The scar elevation index is determined by the ratio of total wound area tissue height to the area of normal tissue below the hypertrophic scar. […]
Whereas the dosages in terms of μMol were equivalent for all 3 statins, the μg dosage levels for Lovastatin and Prevastatin were double those used for Simvastatin. Scar Elevation Index was determined for 28 rabbits, as indicated: […]

For CC[C@H](C)C(=O)O[C@H]1C[C@@H](C)C=C2C=C[C@H](C)[C@H](CC[C@@H]3C[C@@H](O)CC(=O)O3)[C@H]21 [Lovastatin], the hypertrophic scar formation (40 μM per wound, local injection) was “inhibit hypertrophic scar formation” and the “scar elevation index (SEI)” value (lowest level of drug administered (40 μM per wound), injections on days 15, 20, 25, harvest on day 35, versus vehicle) was “significantly lower SEI”.
